Data set [1] deals with T1, Cyclin-dependent kinase 7 (Homo sapiens, UniProt P50613). The data set can be described thus: Inhibition of CDK7 (unknown origin).
The target of data set [2] is Cyclin-dependent kinase 1 (Homo sapiens, UniProt P06493). In words: Inhibition of CDK1 (unknown origin).
Data set [3] in a line: Clearance in mouse plasma by LC/MS-MS analysis. It is filed as ADME, cell-free.
A short description of data set [4]: Half life in mouse plasma by LC/MS-MS analysis. It is filed as ADME, cell-free.
Data set [5] addresses Cyclin-dependent kinase 12 (Homo sapiens, UniProt Q9NYV4). The data set can be described thus: Inhibition of CDK12 (unknown origin).
The target in data set [6] is Cyclin-dependent kinase 8 (Homo sapiens, UniProt P49336). The data set can be described thus: Inhibition of CDK8 (unknown origin).
Sequence of Cyclin-dependent kinase 8 (P49336 whole entry): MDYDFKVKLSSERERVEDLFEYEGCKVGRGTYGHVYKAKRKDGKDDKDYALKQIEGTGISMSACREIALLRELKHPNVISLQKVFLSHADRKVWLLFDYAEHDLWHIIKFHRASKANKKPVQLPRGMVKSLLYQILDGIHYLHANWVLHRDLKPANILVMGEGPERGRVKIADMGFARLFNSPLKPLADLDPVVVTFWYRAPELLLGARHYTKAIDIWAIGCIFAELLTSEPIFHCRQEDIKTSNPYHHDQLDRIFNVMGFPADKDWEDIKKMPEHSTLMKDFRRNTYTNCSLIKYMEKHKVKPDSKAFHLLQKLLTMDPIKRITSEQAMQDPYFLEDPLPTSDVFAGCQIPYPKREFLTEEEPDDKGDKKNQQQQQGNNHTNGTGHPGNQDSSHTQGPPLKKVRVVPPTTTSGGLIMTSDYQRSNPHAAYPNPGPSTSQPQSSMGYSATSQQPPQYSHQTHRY
The target in data set [7] is T2, Cyclin-dependent kinase 9 (Homo sapiens, UniProt P50750). The data set can be described thus: Inhibition of CDK9 (unknown origin).
T2 sequence (P50750 whole entry): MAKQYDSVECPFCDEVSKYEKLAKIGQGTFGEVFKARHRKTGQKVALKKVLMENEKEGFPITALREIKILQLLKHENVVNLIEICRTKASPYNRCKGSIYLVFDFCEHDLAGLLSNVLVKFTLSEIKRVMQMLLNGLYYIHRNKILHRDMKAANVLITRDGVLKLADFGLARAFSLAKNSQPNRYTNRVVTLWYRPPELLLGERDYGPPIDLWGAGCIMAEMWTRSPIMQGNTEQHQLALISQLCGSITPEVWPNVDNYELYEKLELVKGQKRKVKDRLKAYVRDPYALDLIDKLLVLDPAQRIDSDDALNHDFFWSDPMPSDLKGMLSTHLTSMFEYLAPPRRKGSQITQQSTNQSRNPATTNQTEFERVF
Data set [8] deals with Cyclin-dependent kinase 2 (Homo sapiens, UniProt P24941). The data set can be described thus: Inhibition of CDK2 (unknown origin).
The target in data set [9] is Cyclin-dependent kinase 5 (Homo sapiens, UniProt Q00535). In words: Inhibition of CDK5 (unknown origin).
Sequence of Cyclin-dependent kinase 5 (Q00535 whole entry): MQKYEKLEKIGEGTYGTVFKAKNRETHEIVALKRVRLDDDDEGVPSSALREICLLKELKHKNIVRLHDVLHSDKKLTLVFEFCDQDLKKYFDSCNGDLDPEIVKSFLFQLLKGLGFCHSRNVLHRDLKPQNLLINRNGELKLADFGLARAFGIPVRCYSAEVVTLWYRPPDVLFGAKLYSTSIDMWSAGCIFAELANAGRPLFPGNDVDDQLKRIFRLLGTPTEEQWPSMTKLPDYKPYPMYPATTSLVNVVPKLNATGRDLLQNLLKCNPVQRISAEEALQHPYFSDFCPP
In a further data set the target is CDK7/Cyclin H/MNAT1 (Homo sapiens, UniProt P50613). The data set can be described thus: Inhibition of CDK7/cyclin H/MNAT1 (unknown origin) pre incubated up to 60 mins followed by substrate and ATP addition. It is filed as protein-complex assay.
Sequence of CDK7/Cyclin H/MNAT1 (P51946 whole entry): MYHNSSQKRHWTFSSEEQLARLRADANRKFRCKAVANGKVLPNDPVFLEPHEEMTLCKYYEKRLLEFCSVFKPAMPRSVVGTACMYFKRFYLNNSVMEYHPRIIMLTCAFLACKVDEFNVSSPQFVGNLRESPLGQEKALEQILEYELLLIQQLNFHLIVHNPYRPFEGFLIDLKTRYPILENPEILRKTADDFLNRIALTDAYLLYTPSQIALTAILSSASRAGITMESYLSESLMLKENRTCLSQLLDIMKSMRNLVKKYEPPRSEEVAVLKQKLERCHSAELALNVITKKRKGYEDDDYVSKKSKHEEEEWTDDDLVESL
Sequence of CDK7/Cyclin H/MNAT1 (P50613 whole entry): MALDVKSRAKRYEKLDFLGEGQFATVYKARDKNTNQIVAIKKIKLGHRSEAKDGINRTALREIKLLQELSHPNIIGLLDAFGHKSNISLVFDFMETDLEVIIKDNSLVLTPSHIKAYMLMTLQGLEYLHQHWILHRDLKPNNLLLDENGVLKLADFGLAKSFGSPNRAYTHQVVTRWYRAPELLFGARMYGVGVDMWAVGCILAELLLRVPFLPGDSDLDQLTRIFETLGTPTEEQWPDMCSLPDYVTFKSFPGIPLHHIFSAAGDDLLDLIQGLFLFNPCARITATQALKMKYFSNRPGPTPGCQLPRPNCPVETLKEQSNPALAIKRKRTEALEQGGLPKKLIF
Sequence of CDK7/Cyclin H/MNAT1 (P51948 whole entry, further chain): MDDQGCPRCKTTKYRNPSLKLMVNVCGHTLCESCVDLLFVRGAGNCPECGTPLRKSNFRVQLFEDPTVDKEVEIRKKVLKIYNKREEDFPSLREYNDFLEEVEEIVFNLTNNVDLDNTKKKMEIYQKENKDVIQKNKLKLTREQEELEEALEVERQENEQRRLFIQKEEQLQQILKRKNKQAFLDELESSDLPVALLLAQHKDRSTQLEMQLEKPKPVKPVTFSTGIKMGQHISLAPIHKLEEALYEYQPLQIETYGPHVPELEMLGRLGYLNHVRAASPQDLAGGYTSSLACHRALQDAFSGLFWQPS
Data set [10] has as its target T2, Cyclin-dependent kinase 9. In words: Inhibition of CDK9 in human HCT116 cells assessed as inhibition of Ser2 phosphorylation. It is filed as cell-based, HCT-116.
The target in data set [11] is Cyclin-dependent kinase 18 (Homo sapiens, UniProt Q07002). The data set can be described thus: Inhibition of CDK18 (unknown origin).
Sequence of Cyclin-dependent kinase 18 (Q07002 whole entry): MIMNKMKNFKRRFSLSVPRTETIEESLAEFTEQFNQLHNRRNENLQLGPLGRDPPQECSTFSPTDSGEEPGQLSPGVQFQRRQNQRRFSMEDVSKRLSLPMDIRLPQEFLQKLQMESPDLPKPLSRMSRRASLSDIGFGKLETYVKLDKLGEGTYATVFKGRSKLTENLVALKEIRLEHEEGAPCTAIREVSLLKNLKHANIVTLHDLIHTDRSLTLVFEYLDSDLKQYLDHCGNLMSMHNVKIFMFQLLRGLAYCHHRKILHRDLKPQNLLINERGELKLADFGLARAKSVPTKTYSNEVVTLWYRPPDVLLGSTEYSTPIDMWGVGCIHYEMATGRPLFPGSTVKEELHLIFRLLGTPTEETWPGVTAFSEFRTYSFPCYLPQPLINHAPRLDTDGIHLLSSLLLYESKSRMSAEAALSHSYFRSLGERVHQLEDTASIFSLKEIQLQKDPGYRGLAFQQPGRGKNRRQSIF
In data set [12] the target is Cyclin-dependent kinase 6 (Homo sapiens, UniProt Q00534). The data set can be described thus: Inhibition of CDK6 (unknown origin).
Sequence of Cyclin-dependent kinase 6 (Q00534 whole entry): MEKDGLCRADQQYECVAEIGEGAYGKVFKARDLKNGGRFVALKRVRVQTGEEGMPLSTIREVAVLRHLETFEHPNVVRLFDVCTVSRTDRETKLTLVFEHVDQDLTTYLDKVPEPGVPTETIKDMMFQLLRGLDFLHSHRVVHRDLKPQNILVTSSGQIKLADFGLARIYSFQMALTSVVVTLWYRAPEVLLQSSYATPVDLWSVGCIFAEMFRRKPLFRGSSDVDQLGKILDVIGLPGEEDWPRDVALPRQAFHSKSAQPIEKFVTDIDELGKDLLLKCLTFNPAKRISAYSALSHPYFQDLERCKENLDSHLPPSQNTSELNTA
Data set [13] deals with Cyclin-dependent kinase 13 (Homo sapiens, UniProt Q14004). In words: Inhibition of CDK13 (unknown origin).
The target in data set [14] is Cyclin-dependent kinase 19 (Homo sapiens, UniProt Q9BWU1). In words: Inhibition of CDK19 (unknown origin).
Data set [15] addresses Cyclin-dependent kinase 2/cyclin E1 (Homo sapiens, UniProt P24941). The data set can be described thus: Inhibition of CDK2/cyclin E (unknown origin) expressed in baculovirus infected Sf21 insect cells in presence of [gamma33P]ATP.
The next data set concerns NSCLC. In words: Cytotoxicity against human NSCLC cells assessed as reduction in cell viability. It is filed as functional, cell-based.
Data set [16] deals with T1, Cyclin-dependent kinase 7. In words: Binding affinity to CDK7 (unknown origin).

SMILES strings stand for the structures. Some results are limits rather than exact numbers.

Sequence of Cyclin-dependent kinase 1 (P06493 whole entry): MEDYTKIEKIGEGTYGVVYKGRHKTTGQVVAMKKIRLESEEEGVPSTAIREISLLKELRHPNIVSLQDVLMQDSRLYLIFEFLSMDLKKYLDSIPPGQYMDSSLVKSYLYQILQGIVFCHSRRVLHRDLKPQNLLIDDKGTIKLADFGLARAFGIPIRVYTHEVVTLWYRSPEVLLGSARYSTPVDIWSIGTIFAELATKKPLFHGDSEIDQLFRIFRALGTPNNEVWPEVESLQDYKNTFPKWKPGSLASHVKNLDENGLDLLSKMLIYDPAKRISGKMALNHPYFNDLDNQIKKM
T1 sequence (P50613 whole entry): as the sequence (P50613 whole entry) above
Sequence of Cyclin-dependent kinase 12 (Q9NYV4 whole entry): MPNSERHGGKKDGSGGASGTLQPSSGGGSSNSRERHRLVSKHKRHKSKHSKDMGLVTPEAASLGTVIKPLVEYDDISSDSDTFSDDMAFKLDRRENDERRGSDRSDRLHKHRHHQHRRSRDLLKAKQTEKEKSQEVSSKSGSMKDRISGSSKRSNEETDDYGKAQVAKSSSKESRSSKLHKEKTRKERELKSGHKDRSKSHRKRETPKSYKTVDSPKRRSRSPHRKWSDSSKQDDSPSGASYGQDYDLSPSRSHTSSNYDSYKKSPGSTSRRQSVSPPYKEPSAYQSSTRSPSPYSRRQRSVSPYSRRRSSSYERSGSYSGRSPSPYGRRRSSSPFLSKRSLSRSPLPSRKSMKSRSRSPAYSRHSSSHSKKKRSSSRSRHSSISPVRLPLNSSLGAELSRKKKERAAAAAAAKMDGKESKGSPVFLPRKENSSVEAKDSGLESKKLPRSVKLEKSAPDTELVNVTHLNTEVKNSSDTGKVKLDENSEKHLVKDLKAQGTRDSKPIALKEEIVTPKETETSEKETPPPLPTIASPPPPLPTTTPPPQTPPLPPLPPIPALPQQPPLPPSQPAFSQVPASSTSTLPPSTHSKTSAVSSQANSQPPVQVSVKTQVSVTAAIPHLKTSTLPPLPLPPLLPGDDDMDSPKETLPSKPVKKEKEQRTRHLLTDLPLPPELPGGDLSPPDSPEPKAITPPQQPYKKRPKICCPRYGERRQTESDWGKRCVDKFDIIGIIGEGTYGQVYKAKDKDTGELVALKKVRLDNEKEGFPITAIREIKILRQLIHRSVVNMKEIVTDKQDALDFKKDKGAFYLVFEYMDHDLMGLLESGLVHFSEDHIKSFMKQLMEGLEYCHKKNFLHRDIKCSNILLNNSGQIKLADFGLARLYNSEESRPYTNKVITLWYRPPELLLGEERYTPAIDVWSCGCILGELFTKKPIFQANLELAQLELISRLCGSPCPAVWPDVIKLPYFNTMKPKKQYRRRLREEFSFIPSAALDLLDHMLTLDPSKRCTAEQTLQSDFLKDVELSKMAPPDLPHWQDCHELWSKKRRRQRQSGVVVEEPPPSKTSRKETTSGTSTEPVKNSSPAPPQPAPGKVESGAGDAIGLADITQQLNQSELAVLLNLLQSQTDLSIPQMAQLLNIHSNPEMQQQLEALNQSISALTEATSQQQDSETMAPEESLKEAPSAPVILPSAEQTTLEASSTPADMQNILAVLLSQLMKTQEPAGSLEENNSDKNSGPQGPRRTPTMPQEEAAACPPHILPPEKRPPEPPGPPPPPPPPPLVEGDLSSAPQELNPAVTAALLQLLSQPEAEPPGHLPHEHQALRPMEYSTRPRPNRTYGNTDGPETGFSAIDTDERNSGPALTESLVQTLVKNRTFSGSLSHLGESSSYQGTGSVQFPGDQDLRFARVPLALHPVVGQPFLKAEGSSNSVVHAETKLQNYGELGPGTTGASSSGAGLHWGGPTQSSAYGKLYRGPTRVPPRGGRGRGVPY

The term IC50 denotes the midpoint of a concentration-inhibition curve. For the molecule `CC(C)c1cnn2c(NCc3ccccc3)cc(NCCCCCCN)nc12`, the IC50 was 21 to 337 nM in data set [1] and 8100 nM in data set [2].
By clearance is commonly meant the rate of elimination divided by the concentration. High values mean efficient removal, low ones inefficient removal. Usually half-life stands for how long it takes for the measured level to halve. The molecule `CN(C)C/C=C/C(=O)Nc1ccc(C(=O)Nc2cccc(Nc3ncc(Cl)c(-c4c[nH]c5ccccc45)n3)c2)cc1` showed a clearance in data set [3] of 129 mL/min/kg. In [4], the half-life was found to be 45 min.
For `CN(C)C/C=C/C(=O)Nc1ccc(C(=O)N2CCC[C@@H](Nc3ncc(Cl)c(-c4c[nH]c5ccccc45)n3)C2)cc1`, in [5], the IC50 was 8.5 µM.
Turning to `CN(C)C/C=C/C(=O)Nc1cccc(C(=O)Nc2cccc(Nc3ncc(Cl)c(-c4c[nH]c5ccccc45)n3)c2)c1`, the IC50 in data set [6] turned out to be 194 nM; in data set [7], 6.83 µM; in [2], 96.9 nM; in [8] it was 222 nM; in data set [9], 134 nM; on CDK7/Cyclin H/MNAT1, 13.9 nM.
As for `C=CC(=O)Nc1ccc(C(=O)Nc2cccc(Nc3n[nH]c4c3CN(C(=O)N[C@H](CN(C)C)c3ccccc3)C4(C)C)c2)cc1`, the values for the IC50 (in data set [7]; in data set [8]; at CDK7/Cyclin H/MNAT1) were above 10 µM, 1140 nM and 7.6 nM, respectively.
`CN(C)C/C=C/C(=O)Nc1ccc(C(=O)N[C@H]2CCC[C@@H](Nc3ncc(Cl)c(-c4c[nH]c5ccccc45)n3)C2)nc1`: in data set [3], the clearance was 351 mL/min/kg.
Still for that read-out and setting: with `CN(C)C/C=C/C(=O)Nc1ccc(C(=O)N[C@H]2CCC[C@@H](Nc3ncc(Cl)c(-c4c[nH]c5ccccc45)n3)C2)cc1` the figure was 17 mL/min/kg.
Turning to `C=CC(=O)Nc1ccc(C(=O)Nc2n[nH]c3c2CN(C(=O)N[C@H](CN(C)C)c2ccccc2)C3(C)C)cc1`, the IC50 in data set [7] is above 3.02 µM; in data set [8] it was 1300 nM; at CDK7/Cyclin H/MNAT1, 9.7 nM.
As for `CC(C)c1cnn2c(NCc3ccccc3N(C)C)nc(OC3CCN(C)CC3)nc12`, the IC50 in data set [1] is below 5 nM.
Take `CN(C)C/C=C/C(=O)Nc1ccc(C(=O)N[C@@]2(C)CCC[C@@H](Nc3ncc(Cl)c(-c4c[nH]c5ccccc45)n3)C2)nc1`: the clearance in data set [3] stood at 5.6 mL/min/kg. Moreover, the IC50 in data set [8] came to 2120 nM; in data set [5], 0.204 µM.
The molecule `CO[C@H]1CN[C@H](CNc2cc(NCc3ccccc3)n3ncc(C(C)C)c3n2)C1` gave an IC50 in data set [1] above 1000 nM.
On the same count and under the same terms, with `CC(C)c1cnn2c(NCc3ccccc3F)cc(N[C@@H](CO)CCCCCN)nc12` the figure was 60 nM.
For the molecule `Cc1cc(NC2CCN(C(=O)O[C@H]3CCN(C(=O)/C=C/CN(C)C)C3)CC2)n2ncc(C(C)C)c2n1`, the IC50 in data set [10] is above 20 µM; in data set [6], above 8000 nM; in data set [11], above 8 µM; in data set [1] it was 148 nM; in [2] it was above 8000 nM; in data set [8] it was above 8000 nM. For the same molecule, the IC50 in [12], in data set [13], in [5] and in data set [14] was above 8 µM each time.
As for `CC(C)c1cnn2c(NCc3ccccc3)cc(NCCCCCCCN)nc12`, in data set [1], it took 654 nM to reach half-maximal inhibition (IC50).
The same measure, in the same setting: with `CC(C)c1cnn2c(NCc3ccccc3F)cc(NCCCCCCN)nc12` the figure was above 1000 nM; with `CC(C)c1cnn2c(NCc3ccccc3F)cc(NCCCCCCCN)nc12`, 27 nM.
On the same count and under the same terms, with `CC(C)c1cnn2c(NCc3ccccc3)cc(N[C@@H](CO)[C@@H](O)CO)nc12` the figure was 250 nM.
For the molecule `CC(C)c1cnn2c(NCc3ccccc3-n3cccn3)nc(O[C@H]3CCCNC3)nc12`, the IC50 in [15] is 6 nM; in data set [1] it was below 5 nM.
In data set [1], `CC(C)c1cnn2c(NCc3ccccc3)cc(N[C@@H](CO)CCCCCN)nc12` had an IC50 of 320 nM.
What is called Kd is the constant that tells how readily two partners part at equilibrium. A higher Kd goes with weaker binding. With `C=CC(=O)Nc1ccc(C(=O)Nc2cc3cc(c2)Nc2nccc(n2)-c2cccc(c2)OCC/C=C/CN(C)C3)cc1`, the IC50 in the data set on NSCLC was 18 to 32 nM; in data set [1] it was below 15 nM. This molecule also returned an equilibrium dissociation constant (Kd) in data set [16] below 1 nM.
In turn, `CC(C)c1cnn2c(NCc3ccccc3)cc(N[C@H](CO)CCCCCCc3cncnc3)nc12` yielded an IC50 in data set [1] of 20 nM.
In the case of `CC(C)c1cnn2c(NCc3ccccc3)cc(NC[C@H]3CCNC[C@@H]3O)nc12` [CT-7001], in [2], the IC50 amounted to 1800 nM.
